The text below walks through data of patent EP3666765A1, “CHROMENIC PHYTOCANNABINOIDS, THEIR SYNTHESIS AND USE IN TREATMENT OR PREVENTION OF DISEASE” (Emerald Health Biotechnology España,S.L.U., priority 2018, dated 2020).

For the test, the target named is T1, mono-acyl glycerol lipase (MAGL) (Homo sapiens, UniProt Q99685).
T1 construct: purchased Cayman Chemical
T1 sequence (Q99685 1-303): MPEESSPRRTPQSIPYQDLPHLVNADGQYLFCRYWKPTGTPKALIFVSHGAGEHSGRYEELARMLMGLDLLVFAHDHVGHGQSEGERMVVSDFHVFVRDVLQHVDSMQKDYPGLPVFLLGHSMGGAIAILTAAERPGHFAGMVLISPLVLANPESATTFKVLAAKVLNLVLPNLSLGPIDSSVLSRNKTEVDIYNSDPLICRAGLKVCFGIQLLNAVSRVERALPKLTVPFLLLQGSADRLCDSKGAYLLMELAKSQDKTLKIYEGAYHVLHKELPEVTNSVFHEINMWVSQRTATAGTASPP
As to the kind of experiment: In vitro inhibition of mono-acyl glycerol lipase (Monoacylglycerol Lipase Inhibitor Screening Assay Kit, Cayman Chemical; colorimetric). In kind it is biochemical. The following applies: human recombinant enzyme; 5 min pre-incubation at room temperature (20 °C); substrate 4-nitrophenylacetate (236 µM), 30 min; absorbance at 412 nm; read-out: IC50 against MAGL. The procedure: The ability of the compounds of the present invention to inhibit mono-acyl glycerol lipase (MAGL) was estimated using their IC50 value. MALG inhibition was measured using the Monoacylglycerol Lipase Inhibitor Screening Assay Kit (Cayman Chemical, USA). Briefly, in 96-well plate, samples and human recombinant enzyme were incubated for five minutes at room temperature (20 °C). After that, an ethanolic solution of 4-nitrophenylacetate (236 µM), as colorimetric substrate, was added to the wells and plates were incubated for 30 minutes at room temperature. Finally, absorbance was measured at 412 nm. JZL195 {(4-nitrophenyl)-4-[(3-phenoxyphenyl)methyl]piperazine-1-carboxylate, 5 µM} was used as a positive control. Background obtained was subtracted in each experimental value and the percentage of inhibition was established with the formula (Absorbance 100% Activity - Absorbance of the sample)/Absorbance 100% Activity. Table 1: MAGL inhibition (IC50) for compounds of the invention

For `CCCCCC1=CC(=O)C2=C(OC(C)(C)C=C2)C1=O` [(B), 2,2-dimethyl-7-pentyl-chromene-5,8-dione], the half-maximal inhibitory concentration (IC50) came out at 4.5 µM.

As to `CCCCCC1=CC(=O)C2=C(OC(C)(CCC=C(C)C)C=C2)C1=O` (stereo not drawn) [(A), 2-methyl-2-(4-methylpent-3-enyl)-7-pentyl-chromene-5,8-dione], the IC50 stood at 4.44 µM. The result for `CCCC1=CC(=O)C2=C(OC(C)(CCC=C(C)C)C=C2)C1=O` (stereo not drawn) [(C), 2-methyl-2-(4-methylpent-3-enyl)-7-propyl-chromene-5,8-dione] reads 6.64 µM.
